Results published in patent publication US10561703B2, “Method of modulating sex hormone levels using a sex hormone secretion modulator” (GEMVAX & KAEL CO., LTD., priority 2013, dated 2020).

System: Testosterone
Experiment: Testosterone level in blood (serum CLIA) after repeated sc PEP-1
Type: in vivo, SD rats
Description: PEP-1 (peptide of SEQ ID NO: 1), lyophilized white powder, obtained according to the method mentioned in example 1 was dissolved in 0.9% of saline, considering the correction factor of PEP-1 (purity: 94.13%, content: 92.36%, correction factor: 1.15). 50 mg/mL stock solution was further diluted into 20 mg/mL, 2 mg/mL, and 1 mg/mL with 0.9% saline, and stored at 4° C. for a week until the use.
The purpose of this example is to confirm the change of sexual hormones in blood from SD rats with 7 days repeated daily administration of SEQ ID NO: 1 peptide, PEP-1. This experiment followed the Ethics Regulation of Animal Test by KAMSI Inc. (Korea Animal Medical Science Institute). In addition, this experiment, Non-GLP experiment, referred to the MFDS (Ministry of Food and Drug Safety) notification; Agent 2013-40 (5th April 2013), Principles of Good Laboratory Practice (1997).
SPF Rats (Crlj:CD(SD)) were purchased from ORIENTBio Inc. (Mokdong-ri, Buk-myeon, Gapyeong-gun, Gyeonggi-do, Republic of Korea). 75 male (6.5 weeks old and 190˜210 g) and 75 female (6.5 weeks old and 160˜180 g) rats were monitored for 4 days, and 64 of male and female rats (each) were selected for the experiment. Raising condition is as follows; 23±3° C. of temperature, […] of relative humidity, 10˜20 times/hr of number of air changes, 12 hours (8 a.m.˜8 p.m.) of lighting with 150˜300 Lux of intensity.
64 male and female […] (mentioned above) were divided into 8 groups. Administration regimen, for example, drugs, routes, dosages, and volumes were as follows:
The detailed administration regimen is as follows; once a day, twice a day and twice a week in each experimental group. Injection initiated at 10 a.m. every day, and each rat was injected at one minute intervals. Rats in Group 9, 10, 13 and 14 were injected twice a week. Administration of high dose test agent preceded that of low dose. The volume of injection was calculated using recently measured weight of rats, and it was 5 mL/kg. Subcutaneous injection was performed as follows; assistant tilted the back of rat upward, and experimenter sterilized the back of rat with 70% alcohol, followed by subcutaneous injection of test agent with 26 G syringe.
1.4 mL of blood sample (0.7 mL of serum) was collected after measurement of weight (Day 0). Next day (1 Day), 1.4 mL of blood sample (0.7 mL of serum) was collected twice after injection of test agent (4 hrs and 8 hrs after administration of test agent). For next 6 days (Day 2˜Day 7), 1.4 mL of blood was extracted once everyday (4 hours after injection of test agent). Dose and volume of test agent of each group followed the Table 3, and injection time zone was same every day. Blood was extracted from the jugular vein, and left at room temperature for 30 minutes. Serum was separated using centrifugation (10,000 rpm for 5 minutes), and stored at −70±5° C. in Deep freezer until the use. Blood extraction from each subject was done in the same time zone every day.
A CLIA (Chemi-Luminescence Immune Assay) Kit was used to analyze Testosterone, Estradiol E2, FSH (Follicle stimulating hormone), and LH (Luteinizing hormone). Analysis was completed within 48 hrs after blood extraction (Laboratory Medicine Department, Chung-Ang University Hospital), and detailed method is as follows; One-way ANOVA was used to verify the comparison between the vehicle and PEP-1, and between different doses of PEP-1. For further analysis, Duncan test was used as parametric test and Dunnett's test as non-parametric test. p<0.05 represents the statistical significance, and all statistical analysis was carried out with SPSS 10.1.
Testosterone was analyzed using the samples prepared from example 2. 15 μL of serum was used for analysis. Fundamentals of analysis is competitive immunoassay based on direct chemi-luminescent. As mentioned in example 2, CLIA (Chemi-luminescence immune assay) Kit was used for Testosterone analysis, following the manufacture's protocol. […]

## EARPALLTSRLRFIPK (listed as Homo sapiens) [PEP-1, hormone secretion modulator / GnRH analog]
G3 Female 5 mg/kg sc 1/day x7, 7 days
  Testosterone level in blood: 2.91 ng/dL
G4 Male 5 mg/kg sc 1/day x7, 4 hr
  Testosterone level in blood: 0.12 ng/dL
G4 Male 5 mg/kg sc 1/day x7, 8 hr
  Testosterone level in blood: 0.06 ng/dL
G4 Male 5 mg/kg sc 1/day x7, 2 days
  Testosterone level in blood: 0.04 ng/dL
G4 Male 5 mg/kg sc 1/day x7, 3 days
  Testosterone level in blood: 0.06 ng/dL
G4 Male 5 mg/kg sc 1/day x7, 4 days
  Testosterone level in blood: 0.15 ng/dL
G4 Male 5 mg/kg sc 1/day x7, 5 days
  Testosterone level in blood: 0.13 ng/dL
G4 Male 5 mg/kg sc 1/day x7, 6 days
  Testosterone level in blood: 0.19 ng/dL
G4 Male 5 mg/kg sc 1/day x7, 7 days
  Testosterone level in blood: 0.19 ng/dL
G4 Male 5 mg/kg sc 1/day x7, pre
  Testosterone level in blood: 0.2 ng/dL
G6 Male 10 mg/kg sc 1/day x7, 4 hr
  Testosterone level in blood: 0.15 ng/dL
G6 Male 10 mg/kg sc 1/day x7, 8 hr
  Testosterone level in blood: 0.01 ng/dL
G6 Male 10 mg/kg sc 1/day x7, 2 days
  Testosterone level in blood: 0.01 ng/dL
G6 Male 10 mg/kg sc 1/day x7, 3 days
  Testosterone level in blood: 0.05 ng/dL
G6 Male 10 mg/kg sc 1/day x7, 4 days
  Testosterone level in blood: 0.12 ng/dL
G6 Male 10 mg/kg sc 1/day x7, 5 days
  Testosterone level in blood: 0.1 ng/dL
G6 Male 10 mg/kg sc 1/day x7, 6 days
  Testosterone level in blood: 0.12 ng/dL
G6 Male 10 mg/kg sc 1/day x7, 7 days
  Testosterone level in blood: 0.11 ng/dL
G6 Male 10 mg/kg sc 1/day x7, pre
  Testosterone level in blood: 0.13 ng/dL
G8 Male 10 mg/kg sc 2/day x4, 4 hr
  Testosterone level in blood: 0.12 ng/dL
G8 Male 10 mg/kg sc 2/day x4, 8 hr
  Testosterone level in blood: 0.04 ng/dL
G8 Male 10 mg/kg sc 2/day x4, 2 days
  Testosterone level in blood: 0.01 ng/dL
G8 Male 10 mg/kg sc 2/day x4, 3 days
  Testosterone level in blood: 0.07 ng/dL
G8 Male 10 mg/kg sc 2/day x4, 4 days
  Testosterone level in blood: 0.05 ng/dL
G8 Male 10 mg/kg sc 2/day x4, 5 days
  Testosterone level in blood: 0.18 ng/dL
G8 Male 10 mg/kg sc 2/day x4, 6 days
  Testosterone level in blood: 0.08 ng/dL
G8 Male 10 mg/kg sc 2/day x4, 7 days
  Testosterone level in blood: 0.12 ng/dL
G8 Male 10 mg/kg sc 2/day x4, pre
  Testosterone level in blood: 0.17 ng/dL
G9 Female 10 mg/kg sc 2/week x2 (days 1,7), 4 hr
  Testosterone level in blood: 7.92 ng/dL
G9 Female 10 mg/kg sc 2/week x2 (days 1,7), 8 hr
  Testosterone level in blood: 7.57 ng/dL
G9 Female 10 mg/kg sc 2/week x2 (days 1,7), 2 days
  Testosterone level in blood: 0.9 ng/dL
G9 Female 10 mg/kg sc 2/week x2 (days 1,7), 3 days
  Testosterone level in blood: 1.05 ng/dL
G9 Female 10 mg/kg sc 2/week x2 (days 1,7), 4 days
  Testosterone level in blood: 1.21 ng/dL
G9 Female 10 mg/kg sc 2/week x2 (days 1,7), 5 days
  Testosterone level in blood: 1.73 ng/dL
G9 Female 10 mg/kg sc 2/week x2 (days 1,7), 6 days
  Testosterone level in blood: 1.67 ng/dL
G9 Female 10 mg/kg sc 2/week x2 (days 1,7), 7 days
  Testosterone level in blood: 9.43 ng/dL
G9 Female 10 mg/kg sc 2/week x2 (days 1,7), pre
  Testosterone level in blood: 2.3 ng/dL
G10 Male 10 mg/kg sc 2/week x2 (days 1,7), 4 hr
  Testosterone level in blood: 0.16 ng/dL
G10 Male 10 mg/kg sc 2/week x2 (days 1,7), 8 hr
  Testosterone level in blood: 0.02 ng/dL
G10 Male 10 mg/kg sc 2/week x2 (days 1,7), 2 days
  Testosterone level in blood: 0 ng/dL
G10 Male 10 mg/kg sc 2/week x2 (days 1,7), 3 days
  Testosterone level in blood: 0.06 ng/dL
G10 Male 10 mg/kg sc 2/week x2 (days 1,7), 4 days
  Testosterone level in blood: 0.17 ng/dL
G10 Male 10 mg/kg sc 2/week x2 (days 1,7), 5 days
  Testosterone level in blood: 0.08 ng/dL
G10 Male 10 mg/kg sc 2/week x2 (days 1,7), 6 days
  Testosterone level in blood: 0.1 ng/dL
G10 Male 10 mg/kg sc 2/week x2 (days 1,7), 7 days
  Testosterone level in blood: 0.13 ng/dL
G10 Male 10 mg/kg sc 2/week x2 (days 1,7), pre
  Testosterone level in blood: 0.15 ng/dL
G11 Female 100 mg/kg sc 1/day x7, 4 hr
  Testosterone level in blood: 7.73 ng/dL
G11 Female 100 mg/kg sc 1/day x7, 8 hr
  Testosterone level in blood: 7.41 ng/dL
G11 Female 100 mg/kg sc 1/day x7, 2 days
  Testosterone level in blood: 3.92 ng/dL
G11 Female 100 mg/kg sc 1/day x7, 3 days
  Testosterone level in blood: 1.55 ng/dL
G11 Female 100 mg/kg sc 1/day x7, 4 days
  Testosterone level in blood: 0.63 ng/dL
G11 Female 100 mg/kg sc 1/day x7, 5 days
  Testosterone level in blood: 0.55 ng/dL
